Results on five molecules are retold here after PMC5540273, “Progress towards a public chemogenomic set for protein kinases and a call for contributions” (PLoS ONE, 2017).

Common to all, as to assay: KINOMEscan competition binding
Experiment [1] concerns the target T1, EPHA3 (Homo sapiens, UniProt P29320).
T1 sequence (P29320 21-983): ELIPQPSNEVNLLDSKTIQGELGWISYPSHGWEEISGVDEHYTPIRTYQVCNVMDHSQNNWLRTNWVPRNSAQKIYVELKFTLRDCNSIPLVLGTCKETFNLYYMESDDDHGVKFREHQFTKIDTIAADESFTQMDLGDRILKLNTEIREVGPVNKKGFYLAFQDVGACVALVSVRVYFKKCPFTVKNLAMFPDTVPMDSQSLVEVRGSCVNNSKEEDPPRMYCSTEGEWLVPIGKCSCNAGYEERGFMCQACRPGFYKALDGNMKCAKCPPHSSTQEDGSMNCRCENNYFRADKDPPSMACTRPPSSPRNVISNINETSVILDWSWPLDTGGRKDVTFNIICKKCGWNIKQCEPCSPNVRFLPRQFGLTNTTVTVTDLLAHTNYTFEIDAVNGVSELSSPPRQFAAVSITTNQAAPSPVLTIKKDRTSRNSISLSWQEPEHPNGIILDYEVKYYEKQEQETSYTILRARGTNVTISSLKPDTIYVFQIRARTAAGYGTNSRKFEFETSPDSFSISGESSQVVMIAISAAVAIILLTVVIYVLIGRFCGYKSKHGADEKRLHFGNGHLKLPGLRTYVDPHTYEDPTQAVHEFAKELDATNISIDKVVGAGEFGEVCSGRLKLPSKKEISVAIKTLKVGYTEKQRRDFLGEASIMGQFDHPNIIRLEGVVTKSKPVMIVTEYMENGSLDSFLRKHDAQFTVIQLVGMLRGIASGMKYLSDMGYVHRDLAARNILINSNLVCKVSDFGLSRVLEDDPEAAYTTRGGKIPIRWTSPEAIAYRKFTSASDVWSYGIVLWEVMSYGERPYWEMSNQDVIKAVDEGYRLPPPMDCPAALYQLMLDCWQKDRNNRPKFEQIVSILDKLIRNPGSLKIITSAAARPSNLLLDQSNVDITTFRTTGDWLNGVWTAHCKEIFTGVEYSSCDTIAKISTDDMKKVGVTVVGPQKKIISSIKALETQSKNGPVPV
To be noted: read-out: %Inh EPHA3.

The target of experiment [2] is INSRR (Homo sapiens, UniProt P14616). The note with it: read-out: %Inh INSRR.
INSRR, sequence (P14616 27-1297): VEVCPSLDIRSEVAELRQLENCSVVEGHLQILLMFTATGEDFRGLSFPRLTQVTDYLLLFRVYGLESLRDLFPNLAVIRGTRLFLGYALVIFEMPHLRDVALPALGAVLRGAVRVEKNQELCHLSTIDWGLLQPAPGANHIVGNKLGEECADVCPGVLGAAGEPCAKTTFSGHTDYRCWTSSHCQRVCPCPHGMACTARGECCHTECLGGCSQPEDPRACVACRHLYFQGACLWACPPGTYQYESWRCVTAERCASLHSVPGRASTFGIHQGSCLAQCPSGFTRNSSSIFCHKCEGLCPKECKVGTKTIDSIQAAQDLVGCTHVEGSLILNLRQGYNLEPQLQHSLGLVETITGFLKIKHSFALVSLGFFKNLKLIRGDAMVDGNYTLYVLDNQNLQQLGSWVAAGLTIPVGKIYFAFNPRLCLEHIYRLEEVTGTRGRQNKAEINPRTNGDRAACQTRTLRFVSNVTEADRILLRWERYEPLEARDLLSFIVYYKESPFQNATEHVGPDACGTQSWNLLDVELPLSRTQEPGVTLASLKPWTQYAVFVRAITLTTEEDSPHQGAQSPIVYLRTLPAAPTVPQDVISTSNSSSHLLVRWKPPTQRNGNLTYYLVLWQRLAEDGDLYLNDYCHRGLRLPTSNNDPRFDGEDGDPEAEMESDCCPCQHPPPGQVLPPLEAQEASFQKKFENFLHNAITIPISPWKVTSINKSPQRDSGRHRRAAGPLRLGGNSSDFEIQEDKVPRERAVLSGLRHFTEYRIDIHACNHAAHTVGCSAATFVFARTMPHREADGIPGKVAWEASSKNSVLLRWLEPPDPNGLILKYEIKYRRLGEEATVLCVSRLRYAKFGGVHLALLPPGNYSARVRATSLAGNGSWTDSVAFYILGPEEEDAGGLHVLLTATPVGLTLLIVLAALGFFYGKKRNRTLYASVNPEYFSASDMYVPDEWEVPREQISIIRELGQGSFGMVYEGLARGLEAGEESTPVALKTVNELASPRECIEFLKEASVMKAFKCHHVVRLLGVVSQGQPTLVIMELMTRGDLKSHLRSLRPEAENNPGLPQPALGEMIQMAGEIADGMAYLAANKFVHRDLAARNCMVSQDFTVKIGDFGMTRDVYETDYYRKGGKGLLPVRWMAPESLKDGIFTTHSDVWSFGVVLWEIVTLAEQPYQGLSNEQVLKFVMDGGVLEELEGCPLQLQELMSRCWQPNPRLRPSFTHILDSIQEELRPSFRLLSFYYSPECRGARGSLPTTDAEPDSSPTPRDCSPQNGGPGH
Experiment [3] has as its target CDK11 (Homo sapiens, UniProt Q9BWU1). The note with it: read-out: %Inh CDK11.
For experiment [4], the target named is ERBB4 (Homo sapiens, UniProt Q15303). To be noted: read-out: %Inh ERBB4.
ERBB4, sequence (Q15303 26-1308): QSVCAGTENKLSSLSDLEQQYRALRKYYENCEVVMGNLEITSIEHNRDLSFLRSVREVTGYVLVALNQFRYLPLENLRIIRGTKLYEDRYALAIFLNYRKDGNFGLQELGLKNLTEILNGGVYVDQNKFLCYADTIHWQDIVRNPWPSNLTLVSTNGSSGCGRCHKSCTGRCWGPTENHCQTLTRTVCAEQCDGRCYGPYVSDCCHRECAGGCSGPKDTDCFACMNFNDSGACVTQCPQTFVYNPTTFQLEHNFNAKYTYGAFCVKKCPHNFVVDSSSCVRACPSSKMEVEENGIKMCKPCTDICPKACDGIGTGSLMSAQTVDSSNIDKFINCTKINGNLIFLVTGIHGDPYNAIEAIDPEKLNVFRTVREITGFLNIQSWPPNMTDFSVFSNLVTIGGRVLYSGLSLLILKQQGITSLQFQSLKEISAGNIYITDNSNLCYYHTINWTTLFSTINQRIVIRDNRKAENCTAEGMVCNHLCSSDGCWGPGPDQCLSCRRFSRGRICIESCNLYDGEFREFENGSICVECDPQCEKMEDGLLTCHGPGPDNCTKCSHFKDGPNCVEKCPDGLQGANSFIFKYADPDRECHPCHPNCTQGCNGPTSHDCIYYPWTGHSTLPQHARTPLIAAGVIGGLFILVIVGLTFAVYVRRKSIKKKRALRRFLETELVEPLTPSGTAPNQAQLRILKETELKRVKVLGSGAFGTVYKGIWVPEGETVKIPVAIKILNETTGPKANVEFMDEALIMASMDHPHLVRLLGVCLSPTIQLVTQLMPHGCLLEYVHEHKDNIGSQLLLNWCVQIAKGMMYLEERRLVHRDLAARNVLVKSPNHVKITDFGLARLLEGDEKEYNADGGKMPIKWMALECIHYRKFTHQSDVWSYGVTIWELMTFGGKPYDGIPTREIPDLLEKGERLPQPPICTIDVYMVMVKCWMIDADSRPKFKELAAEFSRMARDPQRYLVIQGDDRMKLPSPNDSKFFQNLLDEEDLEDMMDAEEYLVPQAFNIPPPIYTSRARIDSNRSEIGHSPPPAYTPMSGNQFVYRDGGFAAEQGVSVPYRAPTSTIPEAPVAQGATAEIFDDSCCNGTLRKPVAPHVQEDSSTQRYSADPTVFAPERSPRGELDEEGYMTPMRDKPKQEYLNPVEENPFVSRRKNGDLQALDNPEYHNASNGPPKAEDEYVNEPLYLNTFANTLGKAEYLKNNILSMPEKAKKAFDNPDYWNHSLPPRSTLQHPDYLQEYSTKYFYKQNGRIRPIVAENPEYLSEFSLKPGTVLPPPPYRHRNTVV
The target of experiment [5] is T2, CDKL2 (Homo sapiens, UniProt Q92772).
T2 sequence (Q92772 1-493): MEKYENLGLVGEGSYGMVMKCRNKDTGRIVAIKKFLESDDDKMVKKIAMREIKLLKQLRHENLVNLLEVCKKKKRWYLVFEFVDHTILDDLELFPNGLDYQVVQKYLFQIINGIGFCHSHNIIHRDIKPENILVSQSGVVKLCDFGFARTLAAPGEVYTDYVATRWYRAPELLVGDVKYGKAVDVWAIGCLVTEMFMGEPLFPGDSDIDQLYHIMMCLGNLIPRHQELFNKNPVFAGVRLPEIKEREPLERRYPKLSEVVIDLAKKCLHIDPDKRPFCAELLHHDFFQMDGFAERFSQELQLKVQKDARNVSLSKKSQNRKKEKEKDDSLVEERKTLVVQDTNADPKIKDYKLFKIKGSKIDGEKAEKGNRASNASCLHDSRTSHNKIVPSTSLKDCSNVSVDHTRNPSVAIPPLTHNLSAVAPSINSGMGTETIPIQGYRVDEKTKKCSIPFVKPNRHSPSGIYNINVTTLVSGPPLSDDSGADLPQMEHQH
To be noted: read-out: %Inh CDKL2.

Experiment [6] deals with BMPR1A (Homo sapiens, UniProt P36894). The note with it: read-out: %Inh BMPR1A.
BMPR1A, sequence (P36894 24-532): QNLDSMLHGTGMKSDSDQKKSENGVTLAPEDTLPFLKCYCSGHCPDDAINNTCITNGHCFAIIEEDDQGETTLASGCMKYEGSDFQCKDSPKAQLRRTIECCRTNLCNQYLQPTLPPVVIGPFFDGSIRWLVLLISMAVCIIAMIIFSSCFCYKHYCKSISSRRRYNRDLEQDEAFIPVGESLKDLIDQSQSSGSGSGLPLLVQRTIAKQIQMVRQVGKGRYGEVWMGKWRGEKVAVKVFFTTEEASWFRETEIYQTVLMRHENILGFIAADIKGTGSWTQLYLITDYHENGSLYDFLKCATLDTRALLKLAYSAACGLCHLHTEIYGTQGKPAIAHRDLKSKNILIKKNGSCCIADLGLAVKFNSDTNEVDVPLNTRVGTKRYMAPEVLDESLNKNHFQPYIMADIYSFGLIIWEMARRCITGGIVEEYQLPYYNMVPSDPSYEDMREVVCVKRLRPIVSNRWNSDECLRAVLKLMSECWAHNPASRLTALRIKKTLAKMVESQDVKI
Experiment [7] addresses IGF1R (Homo sapiens, UniProt P08069). To be noted: read-out: %Inh IGF1R.

CDK11, sequence (Q9BWU1 whole entry): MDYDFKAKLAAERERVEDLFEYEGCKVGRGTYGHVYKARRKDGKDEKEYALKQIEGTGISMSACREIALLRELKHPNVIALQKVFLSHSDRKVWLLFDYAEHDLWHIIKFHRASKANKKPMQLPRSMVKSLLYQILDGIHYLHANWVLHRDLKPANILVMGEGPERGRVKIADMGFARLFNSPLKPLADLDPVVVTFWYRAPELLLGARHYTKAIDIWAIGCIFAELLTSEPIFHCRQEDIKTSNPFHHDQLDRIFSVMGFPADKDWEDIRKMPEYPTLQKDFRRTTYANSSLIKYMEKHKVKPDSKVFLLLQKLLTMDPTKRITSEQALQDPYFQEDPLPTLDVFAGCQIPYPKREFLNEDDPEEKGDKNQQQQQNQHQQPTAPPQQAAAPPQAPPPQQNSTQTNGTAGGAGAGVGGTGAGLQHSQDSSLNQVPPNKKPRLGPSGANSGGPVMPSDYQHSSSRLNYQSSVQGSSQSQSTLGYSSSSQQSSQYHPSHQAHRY
IGF1R, sequence (P08069 31-1367): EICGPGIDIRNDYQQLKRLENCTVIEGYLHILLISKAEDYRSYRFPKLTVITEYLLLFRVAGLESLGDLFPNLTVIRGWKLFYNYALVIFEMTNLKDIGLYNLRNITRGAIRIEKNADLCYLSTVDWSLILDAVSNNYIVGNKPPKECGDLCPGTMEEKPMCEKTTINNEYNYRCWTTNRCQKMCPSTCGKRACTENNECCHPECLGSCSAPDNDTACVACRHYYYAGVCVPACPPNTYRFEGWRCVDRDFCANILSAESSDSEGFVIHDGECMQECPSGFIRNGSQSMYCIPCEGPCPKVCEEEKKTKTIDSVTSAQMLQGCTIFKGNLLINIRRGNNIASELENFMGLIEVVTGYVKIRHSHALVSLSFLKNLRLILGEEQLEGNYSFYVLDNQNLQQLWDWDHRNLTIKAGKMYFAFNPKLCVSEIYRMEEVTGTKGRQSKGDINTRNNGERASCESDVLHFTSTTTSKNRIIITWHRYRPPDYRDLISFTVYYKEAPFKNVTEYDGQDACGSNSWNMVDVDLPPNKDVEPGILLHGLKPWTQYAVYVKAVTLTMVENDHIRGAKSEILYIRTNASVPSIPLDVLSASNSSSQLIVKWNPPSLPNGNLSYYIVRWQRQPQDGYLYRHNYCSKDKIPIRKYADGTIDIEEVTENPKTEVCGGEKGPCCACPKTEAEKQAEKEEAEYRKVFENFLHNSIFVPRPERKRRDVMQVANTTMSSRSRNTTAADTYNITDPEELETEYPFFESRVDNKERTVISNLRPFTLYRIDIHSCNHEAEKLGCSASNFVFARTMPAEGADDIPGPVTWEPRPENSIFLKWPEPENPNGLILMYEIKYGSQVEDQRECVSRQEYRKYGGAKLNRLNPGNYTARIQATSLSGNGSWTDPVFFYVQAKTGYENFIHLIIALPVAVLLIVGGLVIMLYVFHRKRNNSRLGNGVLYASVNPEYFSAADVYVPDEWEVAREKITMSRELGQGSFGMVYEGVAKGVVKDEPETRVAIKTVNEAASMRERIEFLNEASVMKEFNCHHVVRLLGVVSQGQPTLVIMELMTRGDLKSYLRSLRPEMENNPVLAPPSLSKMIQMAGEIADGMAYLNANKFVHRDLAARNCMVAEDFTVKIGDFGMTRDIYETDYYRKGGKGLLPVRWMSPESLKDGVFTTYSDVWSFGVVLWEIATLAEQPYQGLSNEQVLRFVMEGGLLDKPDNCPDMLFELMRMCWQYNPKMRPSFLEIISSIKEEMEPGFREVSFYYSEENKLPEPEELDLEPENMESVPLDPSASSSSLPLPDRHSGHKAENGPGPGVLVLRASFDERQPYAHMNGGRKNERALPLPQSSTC

In the case of `Cn1cc(-c2cnc(N)c3c(-c4ccc5c(c4)CCN5C(=O)Cc4ccccc4)csc23)cn1` [UNC10225012A], the inhibition at 1 µM in experiment [1] is 0%; in experiment [2] it was 13%; in experiment [3] it was 18%; in experiment [4] it was 0%; in experiment [5], 0%; in experiment [6], 1%. For the same molecule, the inhibition at 1 µM in experiment [7] is 0%.
As for `CS(=O)(=O)Cc1ccc(Nc2nccc(-c3c(-c4cccc(NC(=O)C5CCCCC5)c4)nn4ncccc34)n2)cc1` [UNC10225159A], the inhibition at 1 µM in experiment [1] is 16%; in experiment [2], 20%; in experiment [3], 0%; in experiment [4], 74%; in experiment [5], 5%; in experiment [6] it was 0%. The inhibition at 1 µM in experiment [7] came to 68%.
Turning to `Cc1ccc(NC(=O)Nc2cccc(C(F)(F)F)c2)cc1` [UNC10225187A], the inhibition at 1 µM in experiment [1] was determined as 0%; in experiment [2] it was 0%; in experiment [3], 20%; in experiment [4], 0%; in experiment [5], 0%; in experiment [6], 94.6%. The inhibition at 1 µM in experiment [7] amounted to 0%.
With `COc1cccc(OC)c1C(=O)Nc1cccc(-c2nn3ccccc3c2-c2ccnc(Nc3cccc(F)c3)n2)c1` [UNC10225310A], the inhibition at 1 µM in experiment [1] is 0%; in experiment [2], 0%; in experiment [3] it was 0%; in experiment [4], 84%; in experiment [5], 6%; in experiment [6] it was 9%. For the same molecule, the inhibition at 1 µM in experiment [7] turned out to be 7%.
Turning to `O=c1cc(N2CCOCC2)nc2n(Cc3cccc(Cl)c3Cl)c(C3CC3)nn12` [UNC10225469A], the inhibition at 1 µM in experiment [1] worked out at 0%; in experiment [2], 0%; in experiment [3] it was 0%; in experiment [4], 0%; in experiment [5], 0%; in experiment [6], 15%. In addition, the inhibition at 1 µM in experiment [7] is 0%.
